Assay results reported in patent publication US20160229847A1, “NOVEL BICYCLIC PYRIDINONES AS GAMMA-SECRETASE MODULATORS” (PFIZER INC., priority 2013, published 2016).
Structures can show the parent of a compound that is named as a salt. Where two headings read alike, the source gives them in different places.

Target: γ-secretase (Cricetulus griseus, UniProt G3HNF2)
Assay: Cell-Based γ-Secretase Assay with ELISA Readout (production of amyloid beta protein Aβ(1-42))
Conditions: human WT-APP overexpressing CHO cells, ~24 h incubation, Aβ(1-42) ELISA
[1] = read-out: Aβ 42B IC50 (nM) (Geometric Mean of 2-5 Determinations), Table 5, geometric mean of 2-5 determinations

Method: The ability of compounds to modulate production of amyloid beta protein Aβ(1-42) was determined using human WT-APP overexpressing CHO cells. Cells were plated at 22,000 cells/100 μL well in 96 well tissue culture treated, clear plates (Falcon) in DMEM/F12 based medium and incubated for 24 h at 37° C. […] Compounds were added in fresh medium to achieve 1% final DMSO. Appropriate vehicle or inhibitor controls were added into control wells individually to obtain minimum or maximum inhibition values, respectively, for the assay signal window before the plates were incubated for ˜24 h at 37° C. This procedure produces conditioned media in each well which is tested for Aβ(1-42) levels in the ELISA detection step described next. The remaining cell cultures in each well are also tested for cell toxicity as described below.
Coating of ELISA assay plates was initiated by addition of 50 μL/well of an in-house Aβ(1-42) specific antibody at (3 μg/mL) in 0.1 M NaHCO3 (pH 9.0) into black 384-well Maxisorp® plates (Nunc) and incubated overnight at 4° C. The capture antibody was then aspirated from the ELISA assay plates and plates were washed either 2×100 uL with a Matrical Squirt plate washer, or 3×90 uL with a Thermo Combi, using Wash Buffer (Dulbecco's PBS, 0.05% Tween 20). 90 μL/well of Blocking Buffer (Dulbecco's PBS, 1.0% BSA (Sigma A7030) was then added to plates. Ambient temperature incubation was allowed to proceed for a minimum of 2 h. Blocking buffer was then removed and 20 μL/well Assay Buffer (Dulbecco's PBS, 1.0% BSA (Sigma A7030), 0.05% Tween 20) was then added. At this point, 35 uL (40 uL prior to August, 2012) (in duplicate) of experimental conditioned media (described above) were transferred into wells of the blocked ELISA plates containing the capture antibody, followed by overnight incubation at 4° C. Cell toxicity was also measured in the corresponding remaining cells after removal of the conditioned media for the Aβ(1-42) assay by a colorimetric cell proliferation assay (CellTiter 96® AQueous One Solution Cell Proliferation Assay, Promega) according to the manufacturer's instructions.
After overnight incubation of the ELISA assay plates at 4° C., unbound Aβ peptides were removed via either 2×100 uL washes with a Matrical Squirt plate washer, or 3×90 uL washes with a Thermo Combi, using Wash Buffer. Europium (Eu) labeled (custom labeled, PerkinElmer) Aβ(1-16) 6e10 Monoclonal Antibody (Covance #SIG-39320) was added, (50 μL/well Eu-6e10 @ 1:10,000, 20 uM EDTA) in Assay Buffer. […] Following 30 to 60 min ambient temperature incubation, the plates were read on an EnVision plate reader (PerkinElmer) using standard DELFIA TRF settings. […]

Compound | IC50 [1] | IC50 (Table 5, footnote 1: single determination, read-out: Aβ 42B IC50 (nM), IC50 value is from a single determination)
Cc1cn(-c2ccc3n(c2=O)CCN(Cc2nc(C4(c5ccc(Cl)cc5)CCC4)no2)C3=O)cn1 [Example 18, 2-({3-[1-(4-chlorophenyl)cyclobutyl]-1,2,4-oxadiazol-5-yl}methyl)-7-(4-methyl-1H-imidazol-1-yl)-3,4-dihydro-2H-pyrido[1,2-a]pyrazine-1,6-dione, trifluoroacetate salt] | 169 nM | –
Cc1cn(-c2ccc3n(c2=O)CCN(CC2(c4ccc(Cl)cc4)CC2)C3=O)cn1 [Example 17, 2-{[1-(4-chlorophenyl)cyclopropyl]methyl}-7-(4-methyl-1H-imidazol-1-yl)-3,4-dihydro-2H-pyrido[1,2-a]pyrazine-1,6-dione, trifluoroacetate salt] | 410 nM | –
2-[(7-chloro-6,8-dimethoxyquinolin-2- yl)methyl]-7-(4-methyl-1H-imidazol- 1-yl)-3,4-dihydro-2H-pyrido[1,2- a]pyrazine-1,6-dione [Example 87] | 150 nM | –
2-[(4′-fluorobiphenyl-3-yl)methyl]- 7-(4-methyl-1H-imidazol-1-yl)- 3,4-dihydro-2H-pyrido[1,2- a]pyrazine-1,6-dione, formate salt [Example 12] | – | 83.4 nM
